Laboratory results published in patent US20230355581A1, “METHODS OF TREATMENT FOR MELANOMA” (THE BOARD OF REGENTS OF THE UNVERSITY OF TEXAS SYSTEM, priority 2020, published 2023).

How the values were obtained:
[1] = tested on: IGR1 (RAC1^P29S) cell line; assay: Cytotoxic and cytostatic activity, IGR1; type: cell-based; conditions: IGR1, addition of SU11652 to RMIC
Source text: Two new cell lines were used to shed insight into the relationship between RAC1 signaling and SU11652 activity. The first cell line used was IGR1 which is RAC1^P29S. […] The second new cell line was a knock-in RAC1P29S variant of A375 which allows direct comparisons between RAC1^WT and RAC1P29s melanoma.

[2] = tested on: human foreskin fibroblast cells (HFF1); assay: Viability of human foreskin fibroblasts; type: cell-based
Procedure: The data was collected and plotted using the same methodology as FIG. 1. […] These cells were cultured in suspension in 24 well ultra-low adhesion dishes, seeded at 100,000 cells per well. After 72 h of SU11652 treatment, the cells were imaged and the images were quantified using CellProfiler V2.2. For both panels, since the highest dose administered was 10 μM, estimating IC50 above that dose is theoretical and thus unreliable so IC50>10 μM is indicated in those cases.
Human foreskin fibroblasts (HFF1) were chosen as representative non-cancerous stromal cells (FIG. 2A) in the human skin.

For `CCN(CC)CCNC(=O)c1c(C)[nH]c(/C=C2\C(=O)Nc3ccc(Cl)cc32)c1C` [SU11652, 5-[(Z)-(5-chloro-2-oxo-1,2-dihydro-3H-indol-3-ylidene)methyl]-N-[2-(diethylamino)ethyl]-2,4-dimethyl-1H-pyrrole-3-carboxamide], the cytostatic activity [1] was “caused both cytotoxic and cytostatic effect”, the cytotoxic activity [1] was “caused both cytotoxic and cytostatic effect” and the “effect on cell viability” value ([2]; HFF1, ethidium dimer and apoptosis markers) was “minimal effect”. For the same molecule, the IC50 ([2]; Homo sapiens, HFF-1, HFF1, highest dose administered 10 μM) was > 10 µM.
